# Assay results published in patent publication US20230357447A1, “TUMOR ACTIVATED MULTISPECIFIC ANTIBODIES FOR TARGETING CD28 AND PD-L1 AND METHODS OF USE THEREOF” (Janux Therapeutics, Inc., priority 2022, published 2023).
# System: anti-CD28 scFv
# Experiment: Phage binding ELISA (panning) of clonal phage on anti-CD28 scFv, with or without CD28 soluble protein
# Settings: clonal phage supernatant
# Summary of the method: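 Wells pre-incubated with blocking buffer plus CD28 soluble protein or blocking buffer alone, then crude clonal phage supernatants added without washing for a short incubation. After washing, bound phage detected with HRP-conjugated anti-M13 antibody.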
# [1] = background (no anti-CD28 scFv signal)
Substance,Phage binding ELISA Backgroud signal (background signal),Phage binding ELISA Backgroud signal [1]
Phage-317 (MDWCPRHLWHECFT),0.103,–
Phage-318 (MDWCPMFLWDECFN),0.132,–
Phage-319 (MSWCPRDLWHLCFF),0.077,–
Phage-320 (MDWCPTYLWNECFN),0.120,–
Phage-321 (MDWCPRDLWYVCFA),0.095,–
Phage-322 (MDWCPRHLWIECFN),0.339,–
Phage-323 (MDWCPTYLWNVCFA),0.085,–
Phage-324 (MDWCPRHLWYECFS),0.216,–
Phage-325 (MDWCPAYLWDECFA),0.096,–
Phage-326 (MFWCPITLWNECFN),0.075,–
Phage-327 (MHWCPRDLWHVCFN),0.071,–
Phage-328 (MDWCPRALWDHCFN),0.323,–
Phage-329 (MDWCPRALWNVCFA),0.071,–
Phage-330 (MDWCPRFLWDVCFN),0.100,–
Phage-331 (MDWCPRHLWDECFY),0.098,–
Phage-332 (IDWCPRALWDACLA),0.269,–
Phage-333 (MDWCPTDLWHECFA),0.078,–
Phage-334 (MDWCPRYLWDECFS),0.069,–
Phage-335 (MDWCPRFLWDYCFA),0.146,–
Phage-336 (MDWCPRDLWNWCFN),0.139,–
Phage-337 (MDWCPKPLWHVCFA),0.069,–
Phage-338 (MDWCPRFLWNECFY),0.143,–

Substance,Phage binding ELISA Backgroud signal (background signal),Phage binding ELISA Backgroud signal [1]
Phage-339 (MDWCPRTLWDQCFF),0.088,–
Phage-340 (MSWCPIDLWSECFA),0.072,–
Phage-341 (MDWCPRHLWDECFN),0.084,–
Phage-342 (MDWCPRNLWHECFA),0.067,–
Phage-343 (MDWCPRDLWTQCFF),0.065,–
Phage-344 (MDWCPRHLWVHCFS),0.096,–
Phage-345 (MDFCPRFLWHECFN),0.063,–
Phage-346 (MDWCPRHLWHACFS),0.073,–
Phage-347 (MDWCPLFLWDQCFN),0.116,–
Phage-348 (MAWCPWYLWDECFN),0.200,–
Phage-349 (LDWCPRHLWALCFN),0.073,–
Phage-350 (MDWCPWFLWNECFN),0.158,–
Phage-351 (MDWCPMNLWHECFA),0.080,–
Phage-352 (MDWCPIHLWYECFN),0.080,–
Phage-353 (IDWCPLHLWHECYH),0.067,–
Phage-354 (MDWCPRYLWLECFN),0.083,–
Phage-356 (MDWCPMYLWDECFF),0.082,–
Phage-357 (MDWCPRLLWHECFN),0.071,–
Phage-359 (MDWCPRPLWHECFA),0.063,–
Phage-360 (MDWCPMFLWHECFS),0.092,–
Phage-361 (MHWCPRHLWSECFN),0.165,–
Phage-362 (MDWCPRILWHECFS),0.064,–

Substance,Phage binding ELISA Backgroud signal (background signal),Phage binding ELISA Backgroud signal [1]
Phage-363 (MNWCPMHLWAECFN),0.087,–
Phage-364 (MDWCPRSLWAQCFY),0.067,–
Phage-365 (MDWCPSYLWPVCFN),0.079,–
Phage-366 (MHWCPLYLWDECFY),0.153,–
Phage-367 (MDWCPSFLWYECFN),0.063,–
Phage-368 (MSWCPPYLWTVCYN),0.176,–
Phage-369 (MHWCPRDLWYECFA),0.072,–
Phage-370 (MTWCPAYLWHECFN),0.086,–
Phage-372 (MDWCPRYLWVDCFA),0.095,–
Phage-373 (MDWCPRILWSDCFN),0.082,–
Phage-374 (MAWCPLDLWDKCFY),0.079,–
Phage-375 (MNWCPRALWHECFL),0.085,–
Phage-376 (MDWCPRHLWTYCFH),0.109,–
Phage-377 (MDWCPFDLWLECFN),0.087,–
Phage-378 (MHWCPLHLWNECFA),0.065,–
Phage-379 (MDWCPRNLWAECFS),0.061,–
Phage-380 (MDYCPSYLWHECFA),–,0.065
Phage-381 (MAWCPRILWHQCFN),–,0.113
Phage-382 (ITWCPTSLWNRCLV),–,0.077
Phage-383 (LAGCQRDLATVCVI),–,0.068
Phage-384 (IMWCPTSLWNRCVT),–,0.104
Phage-386 (NHWCPTTLWNRCVA),–,0.293

Substance,Phage binding ELISA Backgroud signal (background signal),Phage binding ELISA Backgroud signal [1]
Phage-387 (MDWCPRHLWLECFN),–,0.064
Phage-388 (MDWCPRFMWNFCFF),–,2.200
Phage-391 (MDWCPFDMWADCFF),–,0.063
Phage-393 (MDWCPRDMWFECFN),–,0.069
Phage-394 (MDWCPRYMWSDCFF),–,0.082
Phage-395 (MDWCPKDMWAECFN),–,0.083
Phage-396 (TDWCPRDMWYLCFN),–,0.082
Phage-397 (MDWCPRAMWDYCFY),–,0.123
Phage-398 (MDWCPRNMWNECFF),–,0.095
Phage-399 (MDWCPRSMWDSCFN),–,0.332
Phage-400 (MHWCPTYMWSECFA),–,0.070
Phage-401 (MDWCPLDMWVLCFA),–,0.085
Phage-402 (MDWCPRHMWHECFH),–,0.067
Phage-403 (MSWCPWDMWNECFA),–,0.069
Phage-404 (MDWCPRDMWTSCFN),–,0.100
Phage-405 (MDWCPMSMWAFCFD),–,0.102
Phage-406 (MNWCPIDMWTECFN),–,0.245
Phage-407 (MNWCPIHMWNQCFA),–,0.085
Phage-408 (MFWCPKDMWAECFA),–,0.099
Phage-409 (LHWCPITMWTYCYY),–,0.229
Phage-410 (IDWCPRYMWHECFF),–,0.098
Phage-411 (MSWCPRFMWHECFN),–,0.081

Substance,Phage binding ELISA Backgroud signal (background signal),Phage binding ELISA Backgroud signal [1]
Phage-412 (QHWCPRDMWNDCYA),–,0.066
Phage-413 (MDWCPSDMWSNCFN),–,0.070
Phage-414 (LYWCPRDMWAYCYS),–,0.068
Phage-415 (MDWCPMYMWHKCFH),–,0.099
Phage-417 (IYWCPTAMWNRCSA),–,0.086
Phage-418 (MYWCPKYMWSECFA),–,0.072
Phage-419 (VDWCPAHMWNECYN),–,0.208
Phage-420 (MFWCPSTMWNRCFD),–,0.063
Phage-422 (MYWCPINMWDYCYA),–,0.122
Phage-423 (INLCPTPMWNRCWL),–,0.119
Phage-424 (ITQCPSTMWNRCSV),–,0.067
Phage-425 (MDLCPTAMWNRCFY),–,0.063
Phage-426 (MFLCPSAMWNRCFY),–,0.069
Phage-427 (VILCPTTMWNRCFH),–,0.100
Phage-428 (MNWCPSTMWNRCLT),–,0.067
Phage-430 (IHLCHWVPWIKCSH),–,2.516
Phage-431 (MAWCPADQWHECFN),–,0.076
Phage-432 (IDWCPIIQGLPCFA),–,0.058
Phage-433 (MAWCPWAQFDECLA),–,0.073
